The results in this text go back to PubChem BioAssay (NCI).

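In this assay, cells in 96-well plates receive the compound at five concentrations for 48 hours. Endpoints are linearly interpolated between the surrounding concentrations. GI50 is the concentration that inhibits growth by half. TGI: total growth inhibition.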 Some results are limits rather than exact numbers.

Some test systems named below: A549 NSCLC; ACHN renal; HCC-2998 colon; NCI-H23 lung; RPMI-8226 leukemia; SK-MEL-5 melanoma; T-47D breast; UACC-257 melanoma; HOP-62 NSCLC; HOP-92 NSCLC.
Holding throughout (test): NCI anticancer screen, dose series, 48 h

As for `FC(F)(F)c1nc(N2CCCC2)ncc1-c1nnnn1-c1ccc(Cl)cc1`, the GI50 in the assay with A549 NSCLC is 13.4 µM; with ACHN renal it was 18.7 µM; with HCC-2998 colon, 26.7 µM; with NCI-H23 lung, 20 µM; with RPMI-8226 leukemia, 1.41 µM; in the assay on SK-MEL-5 melanoma, 12 µM. The GI50 was 5.29 µM in the assay on T-47D breast and 7.11 µM in the assay on UACC-257 melanoma. The TGI with A549 NSCLC is over 100 µM; in the assay on ACHN renal it was over 100 µM; in the assay on HCC-2998 colon, 72.2 µM; with NCI-H23 lung, 51.8 µM; in the assay on RPMI-8226 leukemia it was 12.8 µM; with SK-MEL-5 melanoma it was 28.3 µM. The TGI in the assay on T-47D breast is over 100 µM; with UACC-257 melanoma, 69.5 µM.

For the compound `O=C(Nc1ccc(Cl)c(Cl)c1)c1cccc(NC2=C(Cl)C(=O)N(Cc3ccccc3)C2=O)c1`, the GI50 is 42.9 µM in the assay on A549 NSCLC; 39.8 µM in the assay on ACHN renal; over 100 µM with HOP-62 NSCLC; 37.1 µM with NCI-H23 lung; 14.4 µM in the assay on RPMI-8226 leukemia; over 100 µM in the assay on SK-MEL-5 melanoma. Besides, the GI50 in the assay on T-47D breast was 61.2 µM; with UACC-257 melanoma it was 41.1 µM. Further, the TGI in the assay on A549 NSCLC is over 100 µM; with ACHN renal, over 100 µM; in the assay with HOP-62 NSCLC, over 100 µM; in the assay with NCI-H23 lung, over 100 µM; in the assay with RPMI-8226 leukemia, 44.7 µM; in the assay with SK-MEL-5 melanoma, over 100 µM. Also, the TGI with T-47D breast and in the assay with UACC-257 melanoma was over 100 µM throughout.

For the compound `O=C(O)CCNc1ccccc1C(=O)O`, the TGI in the assay on A549 NSCLC, with ACHN renal, in the assay with HOP-62 NSCLC, in the assay with HOP-92 NSCLC, in the assay on NCI-H23 lung and in the assay on RPMI-8226 leukemia was over 100 µM throughout. Further, the TGI in the assay on SK-MEL-5 melanoma, in the assay with T-47D breast and with UACC-257 melanoma was over 100 µM in each case.

Consider `COc1ccccc1NC(=O)c1sc2nc3c(cc2c1N)C(=O)CCC3`, for which the GI50 in the assay on A549 NSCLC is 2.11 µM; in the assay with ACHN renal it was 6.2 µM; in the assay with HCC-2998 colon, over 100 µM; in the assay with HOP-62 NSCLC it was 2.37 µM; in the assay with NCI-H23 lung, 16.8 µM; in the assay with RPMI-8226 leukemia it was over 100 µM. For the same compound, the GI50 in the assay on SK-MEL-5 melanoma is 1.62 µM; with T-47D breast it was over 100 µM. For the same compound, the TGI was over 100 µM in the assay on A549 NSCLC; over 100 µM in the assay on ACHN renal; over 100 µM in the assay on HCC-2998 colon; 7.17 µM in the assay with HOP-62 NSCLC; over 100 µM in the assay on NCI-H23 lung; over 100 µM in the assay with RPMI-8226 leukemia. Besides, the TGI with SK-MEL-5 melanoma and in the assay with T-47D breast was over 100 µM each time.

Take `O=C(O)C/C(=C\c1ccco1)C(=O)O`: the TGI in the assay with A549 NSCLC, in the assay with ACHN renal, in the assay with HOP-62 NSCLC, with NCI-H23 lung, with RPMI-8226 leukemia and with SK-MEL-5 melanoma was over 100 µM throughout. Further, the TGI with T-47D breast and with UACC-257 melanoma was over 100 µM each time.

Consider `Cc1cc(N(CCC#N)CCC#N)ccc1/C=C1N=C(/C=C\c2ccccc2)OC\1=O`, for which the TGI in the assay on A549 NSCLC, in the assay with ACHN renal, with HCC-2998 colon, with HOP-62 NSCLC, in the assay with HOP-92 NSCLC and in the assay with NCI-H23 lung was over 100 µM throughout. The TGI with RPMI-8226 leukemia, in the assay on SK-MEL-5 melanoma and in the assay on UACC-257 melanoma was over 100 µM throughout.

With `CCSCC1CC(O)(c2ccccc2)C(c2ccccc2)C(c2ccc(Cl)cc2)O1` (stereo not given), the GI50 was 1.61 µM in the assay on A549 NSCLC; 1.81 µM with ACHN renal; 1.82 µM in the assay on HCC-2998 colon; 1.85 µM with HOP-62 NSCLC; 1.88 µM in the assay with NCI-H23 lung; 1.56 µM with RPMI-8226 leukemia. Further, the values for the GI50 in the assay on SK-MEL-5 melanoma, in the assay with T-47D breast and in the assay on UACC-257 melanoma were 1.64 µM, 1.42 µM and 1.83 µM, respectively. Besides, the TGI turned out to be 3.63 µM in the assay with A549 NSCLC; 3.68 µM with ACHN renal; 3.58 µM with HCC-2998 colon; 3.6 µM in the assay with HOP-62 NSCLC; 3.94 µM in the assay with NCI-H23 lung; 4.66 µM in the assay on RPMI-8226 leukemia. Moreover, the TGI is 3.01 µM in the assay on SK-MEL-5 melanoma, 4.57 µM in the assay on T-47D breast and 3.95 µM with UACC-257 melanoma.

Take `CCNC(=O)[C@@H]1CCCN2C(=O)CC[C@H](NC(=O)[C@H](Cc3ccc(OP(=O)(O)O)cc3)NC(C)=O)C(=O)N12`: the GI50 with A549 NSCLC, in the assay on ACHN renal, with HCC-2998 colon, with HOP-62 NSCLC, in the assay on NCI-H23 lung and in the assay on RPMI-8226 leukemia was over 25 µM in each case. In addition, the GI50 in the assay on SK-MEL-5 melanoma, in the assay on T-47D breast and in the assay on UACC-257 melanoma was over 25 µM throughout. Moreover, the TGI in the assay on A549 NSCLC, in the assay on ACHN renal, in the assay on HCC-2998 colon, with HOP-62 NSCLC, in the assay on NCI-H23 lung and in the assay on RPMI-8226 leukemia was over 25 µM in each case. Further, the TGI in the assay on SK-MEL-5 melanoma, in the assay with T-47D breast and in the assay on UACC-257 melanoma was over 25 µM in each case.
